US4739106A, “3-amino-3-carbamoyloxyalkylacrylic acid intermediates to dihydropyridines” (Banyu Pharmaceutical Co., Ltd., priority 1982, dated 1988)
≈ marks a conversion by molar mass, not a printed value.

What was measured:
[1] = system: cerebral blood flow and peripheral blood flow; assay: Separate pharmacological test: cerebral and peripheral blood flow, i.v.; assay type: in vivo; details: 1 to 10 μg/kg intravenously
[2] = Acute toxicity, i.v., DM strain male mice, up-and-down method; details: mouse, in vivo, iv
[3] = system: isolated hearts of rabbits (coronary vessels); assay: Coronary vasodilation, Langendorff method, isolated hearts of rabbits; details: Oryctolagus cuniculus, dosage of a sample required to increase the coronary outflow by 50%, isolated rabbit hearts, read-out: Coronary vasodilation ICD50
Experimental: (a) Coronary vasodilation
According to Langendorff method (O. Langendorff; Pflugers arch. ges. phisiol., 61, 291-332 (1895)), the coronary vasodilation effects were tested using isolated hearts of rabbits. The strength of coronary vasodilation was evaluated by ICD50 (g/ml) i.e. the dosage of a sample required to increase the coronary outflow by 50%.

Beagle dogs = assay: Coronary effects on anesthetized beagle dogs (CF, FAF, BP, HR), i.v.; assay type: in vivo, dog (beagle); details: for CF % increase: coronary blood flow; for CF % increase / FAF % increase / HR % increase: vs saline control; for FAF % increase: femoral artery blood flow; for HR % increase: heart rate; for BP % decrease: systemic blood pressure, vs control
Experimental: (c) Coronary effects on dogs
Beagle dogs (13 to 16 kg, .male.) were subjected to thoracotomy under anesthesia with sodium pentobarbital, and a probe was attached to the heart left coronary anterior descending artery of each animal, whereupon the coronary blood flow (CF) was measured by an electromagnetic flowmeter. On the other hand, a probe was attached to the exposed right femoral artery, and the femoral artery blood flow (FAF) was measured by an electromagnetic flowmeter. A canule was inserted to the left femoral artery, and the systemic blood pressure (BP) was bloody measured by a transducer.
The heart rate (HR) was measured by an electrocardiogram.
The sample solution was intravenously injected to the right femoral vein.
The coronary blood flow (CF), the femoral artery blood flow (FAF) and the heart rate (HR) were represented by a % increase upon the injection of each sample as compared with the respective control value upon the injection of a saline.
The systemic blood pressure (BP) was represented by a % decrease as compared with the control.

CCOC(=O)C1=C(C)NC(COC(N)=O)=C(C(=O)OCC)C1c1cccc([N+](=O)[O-])c1 (stereo not drawn) [(1), 2-Carbamoyloxymethyl-6-methyl-4-(m-nitrophenyl)-3,5-diethoxycarbonyl-1,4-dihydropyridine]
Increase of cerebral blood flow [1]: 40 to 50%
Increase of peripheral blood flow [1]: 40 to 50%

CCOC(=O)C1=C(C)NC(COC(=O)NC)=C(C(=O)OCC)C1c1cccc([N+](=O)[O-])c1 (stereo not drawn) [(2)]
LD50 [2]: 71 mg/kg
EC50 [3]: 0.32 µg/mL (≈ 0.715 µM)

CNC(=O)OCC1=C(C(=O)OC)C(c2cccc([N+](=O)[O-])c2)C(C(=O)OC)=C(C)N1 (stereo not drawn) [(4)]
LD50 [2]: 84 mg/kg
EC50 [3]: 0.36 µg/mL (≈ 0.858 µM)

CCOC(=O)C1=C(C)NC(COC(N)=O)=C(C(=O)OCC)C1c1ccccc1[N+](=O)[O-] (stereo not drawn) [(5), 2-Carbamoyloxymethyl-6-methyl-4-(o-nitrophenyl)-3,5-diethoxycarbonyl-1,4-dihydropyridine]
CF % increase (Beagle dogs; 1 μg/kg i.v.): 13%
CF % increase (Beagle dogs; 3 μg/kg i.v.): 38%
CF % increase (Beagle dogs; 10 μg/kg i.v.): 86%
FAF % increase (Beagle dogs; 1 μg/kg i.v.): 8%
FAF % increase (Beagle dogs; 3 μg/kg i.v.): 35%
FAF % increase (Beagle dogs; 10 μg/kg i.v.): 82%
HR % increase (Beagle dogs; 1 μg/kg i.v.): 0%
HR % increase (Beagle dogs; 3 μg/kg i.v.): 0%
HR % increase (Beagle dogs; 10 μg/kg i.v.): -10%
BP % decrease (Beagle dogs; 1 μg/kg i.v.): 0%
BP % decrease (Beagle dogs; 3 μg/kg i.v.): 2%
BP % decrease (Beagle dogs; 10 μg/kg i.v.): 22%

CCCOCCOC(=O)C1=C(C)NC(COC(N)=O)=C(C(=O)OCCOCCC)C1c1cccc([N+](=O)[O-])c1 (stereo not drawn) [(12), 2-Carbamoyloxymethyl-6-methyl-4-(m-nitrophenyl)-3,5-bis[(β-propoxyethoxy)carbonyl]-1,4-dihydropyridine]
Increase of cerebral blood flow [1]: 40 to 50%
Increase of peripheral blood flow [1]: 40 to 50%

CCCOCCOC(=O)C1=C(C)NC(COC(=O)NC)=C(C(=O)OCCOCCC)C1c1cccc([N+](=O)[O-])c1 (stereo not drawn) [(13), 2-N--Methylcarbamoyloxymethyl,-6-methyl-4-(m-nitrophenyl)-3,5-bis[(β-propoxyethoxy)carbonyl]-1,4-dihydropyridine]
Increase of cerebral blood flow [1]: 40 to 50%
Increase of peripheral blood flow [1]: 40 to 50%

COC(=O)C1=C(COC(N)=O)NC(C)=C(C(=O)OCCN(C)Cc2ccccc2)C1c1cccc([N+](=O)[O-])c1 (stereo not drawn) [(15), 2-Carbamoyloxymethyl-6-methyl-4-(m-nitrophenyl)-3-methoxycarbonyl-5-(β-N--methylbenzylaminoethoxy)carbonyl-1,4-dihydropyridine]
LD50 [2]: 200 mg/kg

COC(=O)C1=C(COC(N)=O)NC(C)=C(C(=O)OCCN2CCOCC2)C1c1cccc([N+](=O)[O-])c1 (stereo not drawn) [(18), 2-Carbamoyloxymethyl-6-methyl-4-(m-nitrophenyl)-3-methoxycarbonyl-5-(β-morpholinoethoxy)carbonyl-1,4-dihydropyridine]
LD50 [2]: 200 mg/kg
